# Test results from patent publication US12545669B2, “Cycloalkyl and heterocycloalkyl benzisoxazole sulfonamide derivatives” (Pfizer Inc., priority 2019, dated 2026).
# Where “and” joins values, the source holds several entries; their conditions need not be identical. Identical values can stand only once.
# Molecular target: KAT6A (Homo sapiens (Human), UniProt Q92794)
# Test: KAT assay protocol (SAMDI mass spectrometry), KAT6A
# Format: biochemical
# Details: for inhibition at 1 µM: 1 μM compound; for Ki: KAT6A Ki at 10 μM AcCoA, 10 μM AcCoA, Morrison equation; for IC50: KAT6A IC50 at 1 μM AcCoA, 1 μM AcCoA
# Experimental: Biological Assay Section 1 KAT Assay Protocol:
# A. Compound Preparation • 1. Prepare 10 mM stock solutions in 100% DMSO from solid material • 2. Serial dilute 10 mM, 1 mM or 0.1 mM compound stocks 3-fold in 100% DMSO for 11-point dose response
# B. Reagent Preparation • 1. Prepare 1× assay buffer containing 10 mM Tris HCL pH 8.0, 2.5 mM NaCl, 0.5 mM EDTA, 0.005% BSG and 0.02% Tween-20 • 2. Dilute Histone peptide (CPC Scientific) and AcCoA (Sigma) together in assay buffer to 2×. • 3. Dilute KAT enzyme in assay buffer to 2×.
# C. Enzyme Reaction • 1. Final reaction conditions for each KAT assay in a 20 ul assay reaction volume: • i. […] Add 0.5 ul of diluted compound to the assay plate (384-well V-bottom polypropylene plates) or 0.5 ul of DMSO for control wells. • 3. Add 10 ul of 2× Histone peptide/2× AcCoA mix to the assay plate. • 4. Add 10 ul of 2× enzyme to the assay plate. • 5. Stop the reaction after the indicated time with the addition of 2 ul of 5% formic acid • 6. Each reaction was analyzed using self-assembled monolayer desorption/ionization time-of-flight mass spectrometry (Mrksich, Milan (2008) Mass Spectrometry of Self-Assembled Monolayers: A New Tool for Molecular Surface Science ACS Nano 2008 2 (1), 7-18; SAMDI Tech, Inc. (Chicago, IL)). • 7. Area under the curve (AUC) for both substrate and product peaks was determined for KAT6A at M.W. 2723 [Substrate+H]^+ and 2765 [Product+H]^+ with a +/−1 Da tolerance, respectively. • 8. Percent conversion to product was calculated by: AUCProduct/(AUCSubstrate+AUCProduct).
# D. Data Analysis • 1. IC50 values were determined by fitting the % conversion at each inhibitor concentration to the 4-parameter IC50 equation using Pfizer proprietary curve fitting software. • 2. Ki values were determined by fitting the % conversion at each inhibitor concentration to the Morrison equation for tightbinding competitive inhibitors using Pfizer proprietary curve fitting software. Materials
# KAT enzymes were expressed using a baculovirus expression system and purified at Pfizer, La Jolla. Histone H3 (1-21) peptide ([…], SEQ ID NO:3) was purchased from CPC Scientific (Sunnyvale, CA). Acetyl coenzyme A was purchased from Sigma-Aldrich (St. Louis, MO). All other biochemical reagents were purchased from Sigma-Aldrich or ThermoFisher Scientific (Waltham, MA).
# […] 10 ul of 2× Histone peptide/AcCoA mix was added to a 384-well V-bottom polypropylene assay plate containing 0.5 ul of serially diluted test compound in 100% dimethyl sulfoxide (DMSO). To start the reaction, 10 ul of 2× enzyme solution was added to the assay plate. KAT assays were terminated after 30-60 minutes with the addition of 2 ul of 5% formic acid. KAT6A used histone H3 (1-21) peptide. The final enzyme concentration for KAT6A was 15 nM. Each reaction was analyzed using self-assembled monolayer desorption/ionization time-of-flight mass spectrometry (Mrksich, Milan (2008) Mass Spectrometry of Self-Assembled Monolayers: A New Tool for Molecular Surface Science ACS Nano 2008 2 (1), 7-18; SAMDI Tech, Inc. (Chicago, IL)).
# Area under the curve (AUC) for both substrate and product peaks was determined for KAT6A at M.W. 2723 [Substrate+H]^+ and 2765 [Product+H]^+ with a +/−1 Da tolerance, respectively. Percent conversion to product was calculated by: AUCProduct/(AUCSubstrate+AUCProduct). IC50 values were determined by fitting the % conversion at each inhibitor concentration to the 4-parameter IC50 equation using Pfizer proprietary curve fitting software. Ki values were determined by fitting the % conversion at each inhibitor concentration to the Morrison equation for tightbinding competitive inhibitors using Pfizer proprietary curve fitting software.
# KAT6A, sequence (Q92794 whole entry): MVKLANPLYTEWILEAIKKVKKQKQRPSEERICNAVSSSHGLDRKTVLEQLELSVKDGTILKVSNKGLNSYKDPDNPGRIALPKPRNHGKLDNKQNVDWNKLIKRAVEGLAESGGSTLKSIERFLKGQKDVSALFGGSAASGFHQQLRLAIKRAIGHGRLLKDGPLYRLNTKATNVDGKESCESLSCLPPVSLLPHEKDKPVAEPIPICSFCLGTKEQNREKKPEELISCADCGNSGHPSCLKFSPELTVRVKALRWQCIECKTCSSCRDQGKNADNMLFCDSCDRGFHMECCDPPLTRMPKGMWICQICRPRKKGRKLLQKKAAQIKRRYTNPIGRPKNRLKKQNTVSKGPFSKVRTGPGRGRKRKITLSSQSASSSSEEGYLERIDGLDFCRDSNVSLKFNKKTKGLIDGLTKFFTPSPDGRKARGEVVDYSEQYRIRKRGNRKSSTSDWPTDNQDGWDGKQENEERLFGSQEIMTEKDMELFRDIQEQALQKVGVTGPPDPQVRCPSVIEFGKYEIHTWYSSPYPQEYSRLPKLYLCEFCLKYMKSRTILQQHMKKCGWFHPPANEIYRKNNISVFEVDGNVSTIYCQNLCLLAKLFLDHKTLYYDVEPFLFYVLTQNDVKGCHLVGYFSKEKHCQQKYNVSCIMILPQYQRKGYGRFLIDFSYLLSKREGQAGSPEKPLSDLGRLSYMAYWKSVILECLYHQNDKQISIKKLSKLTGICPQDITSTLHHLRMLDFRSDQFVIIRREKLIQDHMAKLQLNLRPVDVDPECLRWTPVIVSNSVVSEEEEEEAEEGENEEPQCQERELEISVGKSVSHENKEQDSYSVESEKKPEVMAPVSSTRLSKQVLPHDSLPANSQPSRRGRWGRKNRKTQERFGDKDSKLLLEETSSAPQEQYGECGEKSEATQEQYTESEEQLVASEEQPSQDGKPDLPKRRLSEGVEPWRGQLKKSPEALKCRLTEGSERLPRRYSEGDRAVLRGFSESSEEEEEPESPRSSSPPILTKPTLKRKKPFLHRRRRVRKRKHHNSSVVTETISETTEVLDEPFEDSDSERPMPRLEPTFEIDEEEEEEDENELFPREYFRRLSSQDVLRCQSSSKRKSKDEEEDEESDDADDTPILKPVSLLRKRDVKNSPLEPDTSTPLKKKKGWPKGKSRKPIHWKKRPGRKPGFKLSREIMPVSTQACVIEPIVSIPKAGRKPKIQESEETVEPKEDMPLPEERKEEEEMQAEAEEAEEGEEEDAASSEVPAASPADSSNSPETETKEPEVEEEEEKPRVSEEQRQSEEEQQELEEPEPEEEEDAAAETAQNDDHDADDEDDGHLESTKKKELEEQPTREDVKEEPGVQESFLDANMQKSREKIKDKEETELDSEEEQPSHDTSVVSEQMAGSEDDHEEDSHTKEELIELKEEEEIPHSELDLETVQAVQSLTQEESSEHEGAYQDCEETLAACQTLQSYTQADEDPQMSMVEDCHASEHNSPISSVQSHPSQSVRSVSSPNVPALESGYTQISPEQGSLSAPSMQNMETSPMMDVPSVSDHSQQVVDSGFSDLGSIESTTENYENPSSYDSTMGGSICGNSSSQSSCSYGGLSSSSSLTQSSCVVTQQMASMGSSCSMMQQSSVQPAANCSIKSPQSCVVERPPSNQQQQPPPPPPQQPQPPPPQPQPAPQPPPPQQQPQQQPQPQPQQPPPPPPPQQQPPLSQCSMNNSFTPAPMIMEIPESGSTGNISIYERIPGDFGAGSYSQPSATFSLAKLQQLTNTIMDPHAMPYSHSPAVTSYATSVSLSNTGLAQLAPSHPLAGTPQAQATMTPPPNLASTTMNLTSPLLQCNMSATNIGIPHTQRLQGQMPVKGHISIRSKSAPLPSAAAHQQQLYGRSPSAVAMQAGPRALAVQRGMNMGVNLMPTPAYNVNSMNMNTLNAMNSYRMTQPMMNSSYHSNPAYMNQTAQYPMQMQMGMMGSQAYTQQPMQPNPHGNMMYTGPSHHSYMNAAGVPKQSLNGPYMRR
inhibition at 1 µM,SMILES,Ki,IC50
71%,COc1cc(Cn2cccn2)cc2onc(NS(=O)(=O)CC3(OC)CCC3)c12 [Example 56],–,–
87%,COc1cc(Cn2cccn2)cc2onc(NS(=O)(=O)CCCC3CC3)c12 [Example 58],–,–
48%,COc1cc(Cn2cccn2)cc2onc(NS(=O)(=O)C3CCCCCC3)c12 [Example 59],–,–
42%,COc1cc(Cn2cccn2)cc2onc(NS(=O)(=O)CC3CC(C)C3)c12 (stereo not drawn) [Example 60],–,–
55%,COc1cc(Cn2cccn2)cc2onc(NS(=O)(=O)CC3(C)CCCC3)c12 [Example 61],–,–
97%,COc1cc(Cn2cccn2)cc2onc(NS(=O)(=O)C3CC(C)CC(C)C3)c12 (stereo not drawn) [Example 62],–,–
48%,COc1cc(Cn2cccn2)cc2onc(NS(=O)(=O)CC3CCCCC3(C)C)c12 (stereo not drawn) [Example 63],–,–
95%,COc1cc(Cn2cccn2)cc2onc(NS(=O)(=O)CC3(C(F)F)CCCC3)c12 [Example 65],–,–
88%,COc1cc(Cn2cccn2)cc2onc(NS(=O)(=O)CC3CC3(F)F)c12 (stereo not drawn) [Example 66],–,–
104%,COc1cc(Cn2cccn2)cc2onc(NS(=O)(=O)CC34CCC(CC3)C4)c12 [Example 67],–,–
78%,COc1cc(Cn2cccn2)cc2onc(NS(=O)(=O)CC3CC(OC)C3)c12 (stereo not drawn) [Example 69],–,–
80%,COc1cc(Cn2cccn2)cc2onc(NS(=O)(=O)CC(OC)C3CCCC3)c12 (stereo not drawn) [Example 70],–,–
72%,COc1cc(Cn2cccn2)cc2onc(NS(=O)(=O)CC3(OC)CCCC3)c12 [Example 71],–,–
70%,COc1cc(Cn2cccn2)cc2onc(NS(=O)(=O)C3CCCC3C)c12 (stereo not drawn) [Example 72],–,–
96%,COc1cc(Cn2cccn2)cc2onc(NS(=O)(=O)C3CC(C)C3)c12 (stereo not drawn) [Example 73],–,–
92%,COCC1(S(=O)(=O)Nc2noc3cc(Cn4cccn4)cc(OC)c23)CCC1 [Example 74],–,–
91%,COc1cc(Cn2cccn2)cc2onc(NS(=O)(=O)CC3C(C)(C)C3(F)F)c12 (stereo not drawn) [Example 75],–,–
90%,COc1cc(Cn2cccn2)cc2onc(NS(=O)(=O)CC3(C(F)F)CCC3)c12 [Example 76],–,–
–,COc1cc(Cn2cccn2)cc2onc(NS(=O)(=O)CC3CCCC3(F)F)c12 (stereo not drawn) [Example 77],15.5 nM,–
106%,COc1cc(Cn2cccn2)cc2onc(NS(=O)(=O)CC3CCC3(F)F)c12 (stereo not drawn) [Example 79],–,–
60%,COc1cc(Cn2cccn2)cc2onc(NS(=O)(=O)C3CCC(=O)CC3)c12 [Example 80],–,–
41%,COc1cc(Cn2cccn2)cc2onc(NS(=O)(=O)C3(C)CCC3)c12 [Example 81],–,–
61%,COc1cc(Cn2cccn2)cc2onc(NS(=O)(=O)C3CCC(C)CC3)c12 (stereo not drawn) [Example 82],–,–

inhibition at 1 µM,SMILES,Ki,IC50
85%,COc1cc(Cn2cccn2)cc2onc(NS(=O)(=O)[C@H]3CCCC[C@H]3OC)c12 [Example 83],–,–
62%,COc1cc(Cn2cccn2)cc2onc(NS(=O)(=O)C3CC(C)(C)C3)c12 [Example 84],–,–
–,COc1cc(Cn2cccn2)cc2onc(NS(=O)(=O)[C@H]3CCCN(C(=O)OCc4ccccc4)C3)c12 [Example 88],99.4 nM,–
53%,COc1cc(Cn2cccn2)cc2onc(NS(=O)(=O)[C@@H]3CCCN(C(=O)OCc4ccccc4)C3)c12 [Example 91],–,–
40%,COc1cc(Cn2cccn2)cc2onc(NS(=O)(=O)CC3CCN(C(C)=O)CC3)c12 [Example 92],–,–
59%,CCOC1(CS(=O)(=O)Nc2noc3cc(Cn4cccn4)cc(OC)c23)CCOCC1 [Example 93],–,–
76%,COc1cc(Cn2cccn2)cc2onc(NS(=O)(=O)C3CCN(C(C)=O)CC3)c12 [Example 94],–,–
58%,COc1cc(Cn2cccn2)cc2onc(NS(=O)(=O)C3CCOCC3C)c12 (stereo not drawn) [Example 96],–,–
83%,COc1cc(Cn2cccn2)cc2onc(NS(=O)(=O)C3CCCN(C(C)=O)C3)c12 (stereo not drawn) [Example 97],–,–
83%,COc1cc(Cn2cccn2)cc2onc(NS(=O)(=O)C3CCOC3=O)c12 (stereo not drawn) [Example 99],–,–
69%,COc1cc(Cn2cccn2)cc2onc(NS(=O)(=O)CC3CCC(C)O3)c12 (stereo not drawn) [Example 100],–,–
75%,COc1cc(Cn2cccn2)cc2onc(NS(=O)(=O)CC3CCOC(C)C3)c12 (stereo not drawn) [Example 103],–,–
80%,COc1cc(Cn2cccn2)cc2onc(NS(=O)(=O)CCCC3CCOCC3)c12 [Example 104],–,–
101%,COc1cc(Cn2cccn2)cc2onc(NS(=O)(=O)CC34CCCN(CC3)C4)c12 (stereo not drawn) [Example 105],–,–
48%,COc1cc(Cn2cccn2)cc2onc(NS(=O)(=O)CCCC3CCOC3)c12 (stereo not drawn) [Example 106],–,–
67%,COc1cc(Cn2cccn2)cc2onc(NS(=O)(=O)CCC3CCCCO3)c12 (stereo not drawn) [Example 108],–,–
68%,COc1cc(Cn2cccn2)cc2onc(NS(=O)(=O)CCC3CCOC3)c12 (stereo not drawn) [Example 112],–,–
91%,COc1cc(Cn2cccn2)cc2onc(NS(=O)(=O)CCC3CCOCC3)c12 [Example 117],–,–
56%,COc1cc(Cn2cccn2)cc2onc(NS(=O)(=O)CC3(C)CCOCC3)c12 [Example 118],–,–
58%,COc1cc(Cn2cccn2)cc2onc(NS(=O)(=O)CC3CN(C)CCO3)c12 (stereo not drawn) [Example 119],–,–
35%,COc1cc(Cn2cccn2)cc2onc(NS(=O)(=O)CC3CCCC4(CCC4)O3)c12 (stereo not drawn) [Example 120],–,–
75%,COc1cc(Cn2cccn2)cc2onc(NS(=O)(=O)CC3CCC4(CCC4)O3)c12 (stereo not drawn) [Example 121],–,–
–,COc1cc(Cn2cccn2)cc2onc(NS(=O)(=O)CCOCC3CCC3)c12 [Example 126],–,133 nM

SMILES,inhibition at 1 µM,Ki,IC50
COc1cc(Cn2cccn2)cc2onc(NS(=O)(=O)CC3CC34CC4)c12 (stereo not drawn) [Example 57],104%,13.9 nM,–
COc1cc(Cn2cccn2)cc2onc(NS(=O)(=O)CC3C[C@@H]4[C@H](C3)C4(F)F)c12 (stereo partly drawn) [Example 64],92%,28 nM,–
COc1cc(Cn2cccn2)cc2onc(NS(=O)(=O)CCC3CC3(F)F)c12 (stereo not drawn) [Example 78],77%,45.8 nM,–
COc1cc(Cn2cccn2)cc2onc(NS(=O)(=O)CC3CN(S(C)(=O)=O)C3)c12 [Example 85],36%,1340 nM,–
COc1cc(Cn2cccn2)cc2onc(NS(=O)(=O)CC3CC(C)(C)OC3(C)C)c12 (stereo not drawn) [Example 86],77%,107 nM,–
COc1cc(Cn2cccn2)cc2onc(NS(=O)(=O)C3CCCOC3)c12 (stereo not drawn) [Example 87],73%,100 nM,–
COc1cc(Cn2cccn2)cc2onc(NS(=O)(=O)C3CCOC(C)C3)c12 (stereo not drawn) [Example 89],84%,87.3 nM,–
COc1cc(Cn2cccn2)cc2onc(NS(=O)(=O)C3COC(C)(C)C3)c12 (stereo not drawn) [Example 90],83%,66.2 nM and 58.1 nM,–
COc1cc(Cn2cccn2)cc2onc(NS(=O)(=O)CC3CCCOC3)c12 (stereo not drawn) [Example 98],41%,–,–
COc1cc(Cn2cccn2)cc2onc(NS(=O)(=O)CC3CCCCO3)c12 (stereo not drawn) [Example 101],65%,–,–
COc1cc(Cn2cccn2)cc2onc(NS(=O)(=O)CCC3CCCO3)c12 (stereo not drawn) [Example 102],70%,116 nM,–
COc1cc(Cn2cccn2)cc2onc(NS(=O)(=O)CC3(OC(C)C)CCCO3)c12 (stereo not drawn) [Example 122],85%,14.9 nM,38.4 nM
